Results as given in PMC11931151, “Inhibition of carbohydrate digestive enzymes by a complementary essential oil blend: in silico and mixture design approaches” (Frontiers in Pharmacology, 2025).
≈ marks a conversion by molar mass, not a printed value.

Target: T1, intestinal α-glucosidase
T1 construct: gene SI; called intestinal, sucrose as substrate (points to sucrase-isomaltase), but a commercial yeast enzyme cannot be excluded; docking model 2QMJ is human maltase-glucoamylase
Test: sucrose hydrolysis, glucose oxidase-peroxidase, absorbance at […] nm
Format: biochemical
Settings: phosphate pH 7.5, 37 °C, 20 min pre-incubation, positive control

IC50: 59 ± 9 µg/mL (≈ 91.4 µM)
SMILES: C[C@H]1O[C@H](O[C@H]2[C@H](O)[C@@H](O)[C@@H](O[C@H]3[C@H](O)[C@@H](O)C(O)O[C@@H]3CO)O[C@@H]2CO)[C@H](O)[C@@H](O)[C@@H]1N[C@H]1C=C(CO)[C@@H](O)[C@H](O)[C@H]1O (stereo partly shown) [acarbose]
